We go through one compound from patent publication US4529587A, “Method of reducing sebum on the hair and skin” (Lever Brothers Company, priority 1982, dated 1985).

Assay [1] deals with acetyl-SCoA-carboxylase. The experiment in a line: acetyl-SCoA-carboxylase activity in cultured human dermal fibroblasts (fixation of ^14 C-sodium bicarbonate into protein). It is filed as cell-based. The procedure: In preliminary experiments the ability of biotin sulphone to reduce the activity of acetyl-SCoa-carboxylase in an in vitro assay was assessed using cultured human dermal fibroblasts as described in Ghneim et al (1981) Biochem. Soc. Trans. 9, 405-6 and references therein. Human dermal fibroblasts were maintained in culture for 3 days with 1 μM biotin sulphone in the presence of a nutrient medium containing 10% foetal calf serum. The level of naturally occurring biotin was about 10 nM. Enzyme activity was assayed in the cell pellet by the fixation of ^14 C-sodium bicarbonate into protein in the presence of acety-CoA under appropriate conditions. Control experiments were done in the absence of biotin sulphone and enzyme activities were calculated with respect to protein.

The test system of assay [2] is ^14 C-acetate uptake into dermal lipids. Kind of assay: in vivo topical treatment of rats, ^14 C-acetate uptake into dermal lipids. The arrangement: species or system rat. The procedure: (§1) Ten, 3 week male weanling rats, clipped on left and right flanks, were divided into two groups of five animals. One group was untreated on the left flank while the right flank received the test solution (1 mg/ml biotin sulphone in 70% ethanol:30% water) twice a day (once per day at weekends) for six weeks. The second group received the ethanol/water carrier on the left flank and the test solution on the right. At the end of the treatment the rats were killed, skin removed and divided approximately into epidermis and dermis using a 0.2 mm keratatome cut. Samples of dermis containing most of the sebaceous tissue from either untreated (UN), vehicle (V) or test (T) treated skin were incubated in a nutrient medium (basal eagles medium +10% foetal calf seru, 20 mM hepes pH 7.4, antibiotics, 100 μM sodium acetate containing 1 μCi/ml sodium (1-^14 C) acetate for 19 hours at 37° C. The ^14 C-acetate is metabolically incorporated into lipids and gives a "snap shot" of the lipid synthesis profile over the 19 hour time period. At the end of the incubation samples were washed in ice cold medium without ^14 C-acetate, quenched in ice cold 5% trichloroacetic acid (TCA), homogenised and centrifuged to separate insoluble residue from TCA soluble material ("TCA" fraction). The TCA fraction contains nucleo dtides, small metabolites especially succinate, amino acids, small peptides and free ^14 C-acetate. Lipids were extracted in chloroform:methanol and subject to Folch washing essentially as described by Prottey el al., Brit. J. Dermatol. (1972) 87, 586-607 generating the following fractions : "lipids", "aqueous methanol" containing only a small proportion of skin lipids with a very low ^14 C count and an extracted "solid residue". The total ^14 C count in all these fractions was determined.
The following ratio provides a measure of lipid synthesis per unit volume of skin, that is the total ^14 C-acetate uptake into lipids (i.e. amount of lipid synthesis) divided by the ^14 C-acetate uptake into the remaining tissue fractions (i.e. a measure of sample size). (Remaining tissue="TCA" fraction+"solid residue").

For assay [3], the system named is FFA and "Triglyceride" lipid synthesis. Kind of assay: in vivo topical treatment of rats, ^14 C-acetate incorporation into FFA and "triglyceride" lipid (thin layer chromatography fractions). Also noted: species or system rat. The procedure: as §1
The radioactive lipids were fractionated into free fatty acids (FFA) monoglycerides (MG), diglycerides (trace only) and triglyerides (TG) using a standard, neutral solvent, thin layer chromatography system.
However ^14 C-acetate is also incorporated into the cholesterol synthetic pathway which should be largely unaffected by the biotin sulphone treatment. This will cause a "dilution" of the reduction seen above. Accordingly, the lipids whose synthesis is dependent on acetyl-SCoA-carboxylase have been isolated. These are free fatty acids (FFA), monoglyceride (MG), diglyeride (trace) triglyceride (TG). It is predicted that a greater reduction in the incorporation of ^14 C-acetate into "triglyceride" lipid should now be observed. As fatty acids are the primary product made by the acetyl-SCoA-carboxylase pathway in the sebaceous gland, results for this lipid class have been included separately, as well as for total "triglyceride" lipid; values of six of the rats are given in Table 3 below: […]

[4] abbreviates: biotin sulphone treatment, rats.
The mark [5] stands for this setting: individual rats, 1 = 41,151 DPM ^14 C-acetate incorporated into lipid, corrected for sample size, topical 1 mg/ml, six weeks.

Where “and” joins values, the source holds several entries; their conditions need not be identical. Equal values may be shown once.

For the compound `O=C(O)CCCC[C@H]1[C@H]2NC(=O)N[C@H]2CS1(=O)=O` [biotin sulphone], in assay [1] (1 μM biotin sulphone, 3 days, 10% foetal calf serum, control 4.46), the “nCi ^14 C-bicarbonate fixed per mg protein” value turned out to be 3.26 nCi per mg protein. In assay [1] (1 μM biotin sulphone, 3 days, control = 100), the “Acetyl-SCoA-carboxylase activity (%)” value was 73%. The “reduction in acetyl-SCoA-carboxylase activity” value in assay [1] (culture in the presence of 1 μM biotin sulphone, vs control, 4320 min) is listed as 27%. The “Av. Test ratio: ^14 C-acetate uptake into lipids divided by uptake into remaining tissue” value in assay [2] (average of ten rats, control (UN or V) Av. 0.59) is reported as 0.49. The “change of Av. Test ratio vs control” value in assay [2] (average, Test vs UN or V) is -18%. In assay [2] (individual rats A-J, 1 mg/ml in 70% ethanol:30% water, topical, twice a day, six weeks, dermis incubated 19 hours at 37° C.), the “Test ratio: ^14 C-acetate uptake into lipids divided by uptake into remaining tissue (TCA fraction + solid residue)” value is 0.43 and 0.23 and 0.59 and 0.44 and 0.52 and 0.53 and 0.58 and 0.39 and 0.73. In assay [2] (topical application, ten rats), the “overall reduction in ^14 C-acetate uptake into dermal lipids” value came to 18%. The “FFA synthesis, Test, Av.” value in assay [3] (average of six rats, 1 = 41,151 DPM ^14 C-acetate, control Av. 1.50) is on record as 0.91. Further, the “"Triglyceride" lipid synthesis (sum of FFA + MG + TG), Test, Av.” value in assay [3] (average of six rats, 1 = 41,151 DPM ^14 C-acetate, control Av. 18.24) was 12.94. Besides, in assay [3] (average, Test vs V + UN), the “change of "Triglyceride" lipid synthesis vs control” value was -29% and the “change of FFA synthesis vs control” value is -39%. For the same compound, in assay [3] (setting [4]), the “reduction of "Triglyceride" (FFA+MG+TG) synthesis” value stood at 29% and the “reduction of denovo FFA synthesis” value turned out to be 39%. In assay [3] (setting [5]), the “"Triglyceride" lipid synthesis (sum of FFA + MG + TG), Test” value is 13.93 and 8.58 and 15.17 and 15.38 and 14.74 and 9.85; the “FFA synthesis, Test” value was 0.78 and 0.41 and 0.60 and 1.67 and 1.22.
